Values after ≈ are worked out from the molar mass of the structure shown. Read-outs that look alike come from different tables or passages of the source.
Columns and labels:
Type in all cases: cell-based
[1] = test system: Staphylococcus aureus 53154 IP; assay: In vitro antibacterial activity, MIC, Staphylococcus aureus 53154 IP; details: Staphylococcus aureus 53154 IP; 37° C., pH=7.4, inoculum 10^4; read-out: MIC
Procedure: (§1) Tests carried out in vitro in accordance with the experimental procedure described hereunder have provided evidence of the antibacterial activity in question.
(§2) For this purpose, the M.I.C. were determined i.e. the minimal inhibiting concentrations of the compound under study acting on the growth of the bacteria at 37° C.
(§3) The serial dilutions method was used utilizing a MUELLER HINTON gelose medium at pH=7.4 and a bacterial inoculum of 10^4 units forming colonies. This inoculum was applied to the gelose by means of a multiple sowing device.
(§4) A scale of concentrations ranging from 100 to 0.05 μg/ml of compound to be studied was used starting from mother solutions titrating 1000 μg/ml, all the subsequent dilutions being effected in distilled water.

[2] = test system: Streptococcus faecalis 5855 IP; assay: In vitro antibacterial activity, MIC, Streptococcus faecalis 5855 IP; details: Enterococcus faecalis, 37° C., pH=7.4, inoculum 10^4, read-out: MIC
Procedure: as §1, §2, §3, §4

[3] = test system: Bacillus subtilis ATCC 6633; assay: In vitro antibacterial activity, MIC, Bacillus subtilis ATCC 6633; details: ATCC6633
Procedure: as §1, §2, §3, §4

[4] = test system: Escherichia coli 54127 IP; assay: In vitro antibacterial activity, MIC, Escherichia coli 54127 IP; details: Escherichia coli 54127 IP; 37° C., pH=7.4, inoculum 10^4; read-out: MIC
Procedure: as §1, §2, §3, §4

[5] = test system: Escherichia coli SOL RL 90; assay: In vitro antibacterial activity, MIC, Escherichia coli SOL RL 90; details: SOLRL90
Procedure: as §1, §2, §3, §4

[6] = test system: Citrobacter freundii GN 346; assay: In vitro antibacterial activity, MIC, Citrobacter freundii GN 346; details: GN346
Procedure: as §1, §2, §3, §4

[7] = test system: Proteus vulgaris RL 99 bis; assay: In vitro antibacterial activity, MIC, Proteus vulgaris RL 99 bis; details: RL99BIS
Procedure: as §1, §2, §3, §4

[8] = test system: Proteus mirabilis ATCC 21100; assay: In vitro antibacterial activity, MIC, Proteus mirabilis ATCC 21100; details: ATCC21100
Procedure: as §1, §2, §3, §4

Proteus morganii 1510 = assay: In vitro antibacterial activity, MIC, Proteus morganii 1510; details: Morganella morganii
Procedure: as §1, §2, §3, §4

[9] = test system: Providencia stuartii 5158; assay: In vitro antibacterial activity, MIC, Providencia stuartii 5158; details: Providencia stuartii 5158; 37° C., pH=7.4, inoculum 10^4; read-out: MIC
Procedure: as §1, §2, §3, §4

[10] = test system: Serratia liquefaciens 376; assay: In vitro antibacterial activity, MIC, Serratia liquefaciens 376; details: 37° C., pH=7.4, inoculum 10^4, read-out: MIC
Procedure: as §1, §2, §3, §4

[11] = test system: Klebsiella pneumoniae ATCC 10031; assay: In vitro antibacterial activity, MIC, Klebsiella pneumoniae ATCC 10031; details: ATCC10031; Klebsiella pneumoniae ATCC 10031; 37° C., pH=7.4, inoculum 10^4; read-out: MIC
Procedure: as §1, §2, §3, §4

[12] = test system: Klebsiella pneumoniae R 30; assay: In vitro antibacterial activity, MIC, Klebsiella pneumoniae R 30; details: R30; Klebsiella pneumoniae R 30; 37° C., pH=7.4, inoculum 10^4; read-out: MIC
Procedure: as §1, §2, §3, §4

[13] = test system: Enterobacter cloacae P 99; assay: In vitro antibacterial activity, MIC, Enterobacter cloacae P 99; details: Enterobacter cloacae, P99
Procedure: as §1, §2, §3, §4

[14] = test system: Enterobacter hafniae RO 46; assay: In vitro antibacterial activity, MIC, Enterobacter hafniae RO 46; details: Hafnia alvei, RO46; Enterobacter hafniae RO 46; 37° C., pH=7.4, inoculum 10^4; read-out: MIC
Procedure: as §1, §2, §3, §4

Shigella sonnei R 018 = assay: In vitro antibacterial activity, MIC, Shigella sonnei R 018; details: R018, 37° C., pH=7.4, inoculum 10^4
Procedure: as §1, §2, §3, §4

[15] = test system: Salmonella typhimurium A 222 IP; assay: In vitro antibacterial activity, MIC, Salmonella typhimurium A 222 IP; details: Salmonella enterica
Procedure: as §1, §2, §3, §4

[16] = test system: Salmonella typhi ATCC 6539; assay: In vitro antibacterial activity, MIC, Salmonella typhi ATCC 6539; details: Salmonella enterica
Procedure: as §1, §2, §3, §4

[17] = test system: Bordetella bronchiseptica ATCC 4617; assay: In vitro antibacterial activity, MIC, Bordetella bronchiseptica ATCC 4617; details: ATCC4617, 37° C., pH=7.4, inoculum 10^4, read-out: MIC
Procedure: as §1, §2, §3, §4

[18] = test system: Pseudomonas aeruginosa 8203; assay: In vitro antibacterial activity, MIC, Pseudomonas aeruginosa 8203; details: 37° C., pH=7.4, inoculum 10^4, read-out: MIC
Procedure: as §1, §2, §3, §4

[19] = test system: Acinetobacter calcoaceticus C 1733; assay: In vitro antibacterial activity, MIC, Acinetobacter calcoaceticus C 1733; details: C1733, 37° C., pH=7.4, inoculum 10^4, read-out: MIC
Procedure: as §1, §2, §3, §4

[20] = Bacillus subtilis ATCC 6633, 37° C., pH=7.4, inoculum 10^4, read-out: MIC
[21] = Escherichia coli SOL RL 90, 37° C., pH=7.4, inoculum 10^4, read-out: MIC
[22] = Citrobacter freundii GN 346, 37° C., pH=7.4, inoculum 10^4, read-out: MIC
[23] = Proteus vulgaris RL 99 bis, 37° C., pH=7.4, inoculum 10^4, read-out: MIC
[24] = Proteus mirabilis ATCC 21100, 37° C., pH=7.4, inoculum 10^4, read-out: MIC
[25] = Proteus morganii 1510, 37° C., pH=7.4, inoculum 10^4, read-out: MIC
[26] = Salmonella typhimurium A 222 IP, 37° C., pH=7.4, inoculum 10^4, read-out: MIC

| Compound | MIC [1] [µg/mL] | MIC [2] [µg/mL] | MIC [3, 20] [µg/mL] | MIC [4] [µg/mL] | MIC [5, 21] [µg/mL] | MIC [6, 22] [µg/mL] | MIC [7, 23] [µg/mL] | MIC (Proteus morganii 1510; [25]) [µg/mL] | MIC [9] [µg/mL] | MIC [10] [µg/mL] | MIC [11] [µg/mL] | MIC [12] [µg/mL] | MIC [13] [µg/mL] | MIC [14] [µg/mL] | MIC (Shigella sonnei R 018) [µg/mL] | MIC [15, 26] [µg/mL] | MIC [16] [µg/mL] | MIC [17] [µg/mL] | MIC [18] [µg/mL] | MIC [19] [µg/mL] | other results |
| --- | --- | --- | --- | --- | --- | --- | --- | --- | --- | --- | --- | --- | --- | --- | --- | --- | --- | --- | --- | --- | --- |
| CCn1cc(C(=O)O)c(=O)c2cc(C=NOCCCN(C)C)sc21 [Compound E, 4,7-Dihydro-7-ethyl-2-(3-N,N-dimethylamino-propoxy)-iminomethyl-4-oxo-thieno[2,3-b]pyridine-5-carboxylic acid] | 6.25 (≈ 17.8 µM) | 100 (≈ 285 µM) | 6.25 (≈ 17.8 µM) | 6.25 (≈ 17.8 µM) | 25 (≈ 71.1 µM) | 12.5 (≈ 35.6 µM) | 12.5 (≈ 35.6 µM) | 25 (≈ 71.1 µM) | 25 (≈ 71.1 µM) | 50 (≈ 142 µM) | 3.12 (≈ 8.88 µM) | 25 (≈ 71.1 µM) | 12.5 (≈ 35.6 µM) | 6.25 (≈ 17.8 µM) | 25 (≈ 71.1 µM) | 25 (≈ 71.1 µM) | 25 (≈ 71.1 µM) | > 100 | > 100 | > 100 | MIC [8, 24]: 3.12 µg/mL (≈ 8.88 µM) |
| CCn1cc(C(=O)O)c(=O)c2cc(C=Nc3ccccc3O)sc21 [Compound F, 4,7-Dihydro-7-ethyl-2-N-(2-hydroxy-phenyl)-iminomethyl-4-oxo-thieno[2,3-b]pyridine-5-carboxylic acid] | 100 (≈ 292 µM) | > 100 |  | 1.56 (≈ 4.56 µM) |  |  |  |  | 12.5 (≈ 36.5 µM) | > 100 | 12.5 (≈ 36.5 µM) | 12.5 (≈ 36.5 µM) | 6.25 (≈ 18.3 µM) | 1.56 (≈ 4.56 µM) | 6.25 (≈ 18.3 µM) |  | 3.12 (≈ 9.11 µM) | > 100 | > 100 | 100 (≈ 292 µM) | MIC ([3]; Bacillus subtilis): 6.25 µg/mL (≈ 18.3 µM); MIC ([5]; Escherichia coli): 3.12 µg/mL (≈ 9.11 µM); MIC ([6]; Citrobacter freundii): 6.25 µg/mL (≈ 18.3 µM); MIC ([7]; Proteus vulgaris): 3.12 µg/mL (≈ 9.11 µM); MIC ([8]; Proteus mirabilis): 3.12 µg/mL (≈ 9.11 µM); MIC (Proteus morganii 1510; 1510): 6.25 µg/mL (≈ 18.3 µM); MIC ([15]; TYPHIMURIUM): 3.12 µg/mL (≈ 9.11 µM) |
| CCn1cc(C(=O)O)c(=O)c2cc(C=Nc3ccc(OC)cc3)sc21 [Compound G, 4,7-Dihydro-7-ethyl-2-N-(4-methoxy-phenyl)-iminomethyl-4-oxo-thieno[2,3-b]pyridine-5-carboxylic acid] | > 100 | > 100 |  | 1.56 (≈ 4.38 µM) | 3.12 (≈ 8.75 µM) |  | 1.56 (≈ 4.38 µM) | 0.78 (≈ 2.19 µM) | 12.5 (≈ 35.1 µM) | 100 (≈ 281 µM) | 12.5 (≈ 35.1 µM) | 12.5 (≈ 35.1 µM) | 6.25 (≈ 17.5 µM) | 1.56 (≈ 4.38 µM) | 6.25 (≈ 17.5 µM) | 3.12 (≈ 8.75 µM) | 6.25 (≈ 17.5 µM) | > 100 | > 100 | > 100 | MIC ([3]; Bacillus subtilis): 6.25 µg/mL (≈ 17.5 µM); MIC ([6]; Citrobacter freundii): 6.25 µg/mL (≈ 17.5 µM); MIC ([8]; Proteus mirabilis): 6.25 µg/mL (≈ 17.5 µM) |
| CCn1cc(C(=O)O)c(=O)c2cc(C=NOC(C)(C)C)sc21 [Compound I, 4,7-Dihydro-7-ethyl-4-oxo-2-tert-butoxyiminomethyl-thieno[2,3-b]pyridine-5-carboxylic acid] | > 50 | > 100 | 1.56 (≈ 4.84 µM) | > 25 | > 50 | > 25 | > 50 | > 25 | > 50 | > 25 | 3.12 (≈ 9.68 µM) | > 25 | > 25 | > 25 | > 50 | > 50 | > 25 | > 25 | > 25 | > 25 | MIC [8, 24]: > 25 µg/mL |

Reference: patent publication US4663329A, “Thienopyridinone derivatives and anti-bacterial compositions containing them” (Sanofi, priority 1984, dated 1987)
